The values that follow come from patent US12649907B2, “Alternate detergents for viral inactivation” (AMGEN INC., priority 2019, dated 2026).

The test system of the first data set is xMuLV. It counts as cell-based, xenotropic murine leukemia virus. The following applies: initial screen, 10× CMC or 10% w/v, 30 minutes, 15° C., 5% virus spike, PG4 cells.
With `CCCCCCCCCCCCCOCCOCCOCCOCCOCCOCCOCCOCCO` [Anapoe C13E8], the “Viral inactivation towards xMuLV (CPE)” value was “did not”. `CCCCCCCCCCOCCOCCOCCOCCOCCOCCO` [Anapoe C10E6]: the “Viral inactivation towards xMuLV (CPE)” value is “did not”. As to `CCCCCCCCCCOCCOCCOCCOCCOCCOCCOCCOCCOCCO` [Anapoe C10E9], the “Viral inactivation towards xMuLV (CPE)” value was “did not”. For the compound `CCCCCCCCCCCCOCCOCCOCCOCCOCCOCCOCCOCCOCCOCCO` [Anapoe C12E10], the “Viral inactivation towards xMuLV (CPE)” value was “did not”.

Tested on in a further data set: not given
The following applies: as indicated by the Hampton Kit; cited from earlier work.
For `CCCCCCCC(=O)N(C)C[C@H](O)[C@@H](O)[C@H](O)[C@H](O)CO` [MEGA-8], the CMC is 79 mM.

With `CCCCCCCCOCCOCCOCCOCCOCCOCCO` [Hexaethylene glycol monooctyl ether], the CMC is listed as 10 mM. Regarding `O=C(CCCC1CCCCC1)N(CCO)CC(O)C(O)C(O)C(O)CO` (stereo not shown) [C-HEGA ®-10], the CMC is recorded as 35 mM. Regarding `CCCCCCCCOCCOCCOCCOCCOCCO` [Detergent C8E5], the CMC was 7.1 mM. For `OC[C@H]1O[C@H](O[C@H]2[C@H](O)[C@@H](O)[C@H](OCCCCC3CCCCC3)O[C@@H]2CO)[C@H](O)[C@@H](O)[C@@H]1O` [CYMAL ®-4, 4-Cyclohexyl-1-Butyl-β-D-Maltoside], the CMC is listed as 7.6 mM. For the compound `CCCCCCCCCCOP(=O)(O)OCCNC` [FOS-MEA ®-10], the CMC is reported as 5.25 mM.

Consider `CCCCCCCNC(=O)OC[C@H]1O[C@H](OC)[C@H](O)[C@@H](O)[C@@H]1O` [HECAMEG ®], for which the CMC is recorded as 19.5 mM. On to `CCCCCCCCCO[C@@H]1O[C@H](CO)[C@@H](O[C@H]2O[C@H](CO)[C@@H](O)[C@H](O)[C@H]2O)[C@H](O)[C@H]1O` [n-Nonyl-b-D-maltoside], for which the CMC is 6 mM.

Consider `CCCCCCCCCCCCCC(=O)OC[C@@H](O)COP(=O)([O-])OCC[N+](C)(C)C` [LysoFos ™ Choline 14], for which the CMC is 0.036 mM.

For `CCCCCCCCCCCO[C@@H]1O[C@H](CO)[C@@H](O[C@H]2O[C@H](CO)[C@@H](O)[C@H](O)[C@H]2O)[C@H](O)[C@H]1O` [n-Undecyl-b-D-maltoside], the CMC is recorded as 0.59 mM. As to n-Decanoylsucrose, the CMC is listed as 2.5 mM. As to `CCCCCCCCOCCOCCOCCOCCO` [Detergent C8E4], the CMC is 8 mM. As for `CCCCCCO[C@@H]1O[C@H](CO)[C@@H](O)[C@H](O)[C@H]1O` [n-Hexyl-b-D-glucopyranoside], the CMC was 250 mM. On to `CCCCCCCCCCCCO[C@@H]1O[C@H](CO)[C@@H](O[C@H]2O[C@H](CO)[C@@H](O)[C@H](O)[C@H]2O)[C@H](O)[C@H]1O` [n-Dodecyl-b-D-maltoside], for which the CMC is 0.17 mM. Take `CCCCCCCCC(=O)N(C)C[C@H](O)[C@@H](O)[C@H](O)[C@H](O)CO` [MEGA-9]: the CMC is on record as 25 mM.
